# Read-outs that look alike come from different tables or passages of the source.
# Columns and labels:
# [1] = target: T1, GST-cGB-PDE5 fusion protein (cGMP binding sites of human PDE5A) (Homo sapiens, UniProt O76074); experiment: cGMP binding assay with GST-cGB-PDE5 fusion protein; conditions: for competition with cGMP binding to GST-cGB-PDE5 at high concentration: compound 100 μM, cGMP 2 μM
# T1 construct: made in house; host or cells: E. coli BL21 (DE3)
# Method: 5′-3′, Inc. kits for total RNA followed by oligo (dT) column purification of mRNA are used with HT-29 cells. […] It is then cloned into pGEX-5X-3 glutathione-S-transferase (GST) fusion vector (Pharmacia Biotech )with tac promoter, and EcoRI and XhoI cut sites. The fusion vector is then transfected into E. Coli BL21 (DE3) bacteria (Invitrogen). The transfected BL21 bacteria is grown to log phase, and then IPTG is added as an inducer. The induction is carried at 20° C. for 24 hrs. The bacteria are harvested and lysed. The soluble cell lysate is incubated with GSH conjugated Sepharose 4B (GSH-Sepharose 4B). The GST-cGB-PDE5 fusion protein can bind to the GSH-Sepharose beads, and the other proteins are washed off from beads with excessive cold PBS.
# Then, the mixture is transferred to Brandel MB-24 cell harvester with GF/B as the filter membrane followed by 2 washes with 10 mL of cold 5 mM potassium buffer(pH 6.8). The membranes are then cut out and transferred to scintillation vials followed by the addition of 1 mL of H2O and 6 mL of Ready Safe™ liquid scintillation cocktail to each vial. The vials are counted on a Beckman LS 6500 scintillation counter.
# The quenching by filter membrane or other debris are also calibrated.
# [2] = target: T2, PDE5 (Homo sapiens, UniProt O76074); experiment: cGMP PDE inhibition, PDE5; format: biochemical
# T2 construct: partially purified cGMP-specific PDE isolated from HT-29 cells; endogenous in cells; host or cells: HT-29
# Method: The mixture is incubated at 30° C. for 10 minutes with isolated PDE2 and/or PDE5. Reactions are terminated, for example, by boiling the reaction mixture for 75 seconds. After cooling on ice, 100 μl of 0.5 mg/mL snake venom (O. Hannah venom available from Sigma) is added and incubated for 10 minutes at 30° C. This reaction is then terminated by the addition of an alcohol, e.g. 1 mL of 100% methanol. Assay samples are applied to 1 mL Dowex 1-X8 column; and washed with 1 mL of 100% methanol. The amount of radioactivity in the breakthrough and the wash from the column is combined and measured with a scintillation counter. The degree of phosphodiesterase inhibition is determined by calculating the amount of radioactivity in drug-treated reactions and comparing against a control sample (a reaction mixture lacking the tested compound but with drug solvent).
# Compounds can be tested for inhibitory effect on phosphodiesterase activity using either the enzyme isolated from any tumor cell line such as HT-29 or SW-480. […] The amount of radioactivity in the breakthrough and the wash from the columns in then measured with a scintillation counter. The degree of PDE5 inhibition is determined by calculating the amount of radioactivity in drug-treated reactions and comparing against a control sample (a reaction mixture lacking the tested compound).
# [3] = acute toxicity study in rats; format: in vivo
# [4] = 28-day study in rats; format: in vivo; conditions: 28 days
# Method: A 28-day study in rats was also carried out at 0, 50, 500 and 2000 mg/kg/day.
# [5] = long-term safety assessment study in rats, 91 days; format: in vivo; conditions: males and females at 200 and 500 mg/kg/day
# [6] = single, escalating dose human clinical safety study; format: in vivo; conditions: oral, 50 mg BID, 100 mg BID, 200 mg BID and 400 mg BED
# [7] = system: U937 cells; experiment: apoptosis induction of U937 cells (active caspase 3 indirect immunofluorescence); format: cell-based; conditions: 1 μM
# Method: U937 cells (from ATCC Rockville, Md.) were grown in RPMI media supplemented with 5% FCS, glutamine, antibiotic/antimycotic and sodium pyruvate. Total RNA was isolated from two U937 cultures, one treated with 5 nM TPA for 48 hours and one grown in normal media as listed above, using the Rouche High Pure RNA Isolation Kit (cat#1 828 665) as per manufacturers protocol. cDNA was then synthesized from the total RNA using GibcoBRL SuperscriptII (Cat #18064-022) reverse transcriptase as per manufacturers protocol. The resulting cDNA was used as a template for RT-PCR reactions using primer sets specific for PDE2 (forward: […], reverse: […]) or PDE5 (forward: […], reverse: […]). mRNA for PDE2 and 5 were both present in the untreated U937 cells. Upon treatment with TPA, the relative amounts of PDE2 mRNA increased 5 fold. Therefore, U937 cells treated with TPA and driven to differentiate into an activated macrophage like state have elevated levels of PDE2 mRNA (see FIG. 1).
# The presence of PDE2 and PDE5 protein within U937 cells was confirmed by indirect immunofluorescence (IIF). U937 cells were cultured as above. Two U937 cultures, one grown in the presence of 5 nM TPA for 48 hours and one grown in normal media were processed. […]
# The level of apoptosis in U937 cells was quantified by scoring 500 consecutive cells for the presence of active caspase 3. […]
# [8] = acute and seven-dose toxicity in dogs (capsules); format: in vivo
# Method: Therefore, these dogs were subsequently administered seven consecutive doses of 1000 mg/kg/day.
# [9] = seven-day dose-range finding study in rats; format: in vivo; conditions: seven days, 2000 mg/kg/day
# [10] = system: TNF-α secreted by TPA-induced U937 cells; experiment: TNF-α immunoassay on U937 cell culture media; format: cell-based; conditions: cell culture media (FIG. 12)
# Method: One function of macrophages is to modulate the activity of other inflammatory cells through various cytokine molecules.
# TNF-α levels in the cell culture media were determined by using the TNF-α Immunoassay from R&D Systems (Cat. # DTA50) according to the manufacturer's protocol.
# [11] = 91-day oral study in dogs; format: in vivo; conditions: 91 days, 150 and 300 mg/kg/day
smiles,measurement,setting,value
CCCCOC1C2OP(=O)(O)OCC2OC1n1cnc2c(N)ncnc21 (stereo not shown) [2′-O-butyl-cAMP],competition with cGMP in binding to cGMP binding sites of GST-cGB-PDE5,[1]; 3H-cGMP 2 μM,did not compete
CCCCOC1C2OP(=O)(O)OCC2OC1n1cnc2c(=O)[nH]c(N)nc21 (stereo not shown) [2′-O-butyl-cGMP],competition with cGMP in binding to cGMP binding sites of GST-cGB-PDE5,[1]; 3H-cGMP 2 μM,did not compete
"CC1=C(CC(=O)NCc2ccccc2)c2cc(F)ccc2/C1=C\c1ccncc1.Cl [Compound 38, (Z)-5-Fluoro-2-Methyl-(4-Pyridylidene)-3-(N-Benzyl)Indenylacetamide Hydrochloride]",IC50,[2],4 µM
same,intraperitoneal LD50,[3]; intraperitoneal,greater than 1000 mg/kg
same,oral LD50,[3]; oral,> 2000 mg/kg
same,necropsy finding,[3]; single dose 1000 mg/kg intraperitoneally,mesenteric adhesions seen in some animals
same,"body weight changes, ophthalmoscopic examinations, hematological and blood chemistry values and urinalysis",[4],unremarkable
same,liver and thyroid increases at the lower doses,[4]; lower doses,not statistically significant
same,liver and thyroid/parathyroid weights,[5],dose-related trend to increased liver and thyroid/parathyroid weights
same,side effects,[6],no significant side effects at any dose
same,apoptosis as reflected by the presence of active caspase 3 (FIG. 8),[7],undergoing apoptosis
same,competition with cGMP in binding to cGMP binding sites of GST-cGB-PDE5,[1]; 3H-cGMP 2 μM,does not bind to the cGMP-binding site
same,oral LD50,[8],greater than 1000 mg/kg
same,effects,[9],"labored breathing and/or abnormal respiratory sounds, decreased weights gains and food consumption in male rats, and increased liver weights in female rats"
same,level of TNF-α secreted,[10],significantly reduced
same,feces,[11],Orange discoloration of the feces
Nc1ncnc2c1ncn2[C@@H]1O[C@@H]2COP(=O)(O)O[C@H]2[C@H]1O [Cyclic AMP],competition with cGMP in binding to cGMP binding sites of GST-cGB-PDE5,[1],did not compete
O=c1[nH]cnc2c1ncn2[C@@H]1O[C@@H]2COP(=O)(O)O[C@H]2[C@H]1O [Cyclic IMP],competition with cGMP binding to GST-cGB-PDE5 at high concentration,[1],can partially compete
"Nc1nc2c(nc(Br)n2[C@@H]2O[C@@H]3COP(=O)(O)O[C@H]3[C@H]2O)c(=O)[nH]1 [Example 8-bromo-cGMP, 8-bromo-cGMP]",competition with cGMP binding to GST-cGB-PDE5 at high concentration,[1],can partially compete
O=C([O-])C1CCN(c2nc(NCc3ccc4c(c3)OCO4)c3cc(Cl)ccc3n2)CC1.[Na+] [Example E4021],competition with cGMP in binding to cGMP binding sites of GST-cGB-PDE5,[1]; 3H-cGMP 2 μM,None of the PDE5 inhibitors showed any competition
"CSc1ccc(/C=C2/C(C)=C(CC(=O)O)c3cc(F)ccc32)cc1 [Sulindac sulfide, sulindac sulfide]",competition with cGMP in binding to cGMP binding sites of GST-cGB-PDE5,[1]; 3H-cGMP 2 μM,None of the PDE5 inhibitors showed any competition
"Nc1ccn([C@@H]2O[C@@H]3COP(=O)(O)O[C@H]3[C@H]2O)c(=O)n1 [cCMP, cyclic CMP]",competition with cGMP in binding to cGMP binding sites of GST-cGB-PDE5,[1]; 3H-cGMP 2 μM,did not compete
"O=c1ccn([C@@H]2O[C@@H]3COP(=O)(O)O[C@H]3[C@H]2O)c(=O)[nH]1 [cUMP, cyclic UMP]",competition with cGMP in binding to cGMP binding sites of GST-cGB-PDE5,[1]; 3H-cGMP 2 μM,did not compete
CC1=C(CC(=O)O)c2cc(F)ccc2/C1=C\c1ccc(S(C)(=O)=O)cc1 [exisulind],competition with cGMP in binding to cGMP binding sites of GST-cGB-PDE5,[1]; 3H-cGMP 2 μM,None of the PDE5 inhibitors showed any competition
CCCOc1ccccc1-c1nc2nn[nH]c2c(=O)[nH]1 [zaprinast],competition with cGMP in binding to cGMP binding sites of GST-cGB-PDE5,[1]; 3H-cGMP 2 μM,None of the PDE5 inhibitors showed any competition

# From patent publication US20060252762A1, “Methods for treatment of multiple sclerosis” (priority 2001, published 2006)
